The results in this text go back to patent publication US11464780B2, “Pyrazolopyrimidine derivative and use thereof” (Simcere Pharmaceutical Co. Ltd., priority 2018, dated 2022).

In general, T/C refers to the ratio of treated to control.

The subject of series [1] is human lung cancer LU-01-0414 subcutaneous xenograft tumor. The series is described as follows: In vivo efficacy, subcutaneous xenograft tumor of human lung cancer LU-01-0414. Further details: species or system BALB/c mouse. Particulars: LU-01-0414 xenograft, 14th day, PO. The procedure: Experimental object: evaluation of the in vivo efficacy of test drugs such as WX002A on subcutaneous xenograft tumor of human lung cancer LU-01-0414 in BALB/c mouse model.
Drug preparation: The compounds were all prepared into clear solutions with 5% DMSO+10% solutol+85% water as solvent for administration in the PO (intragastric) group.
Tumor measurement: the tumor diameters were measured with a vernier caliper twice a week. The calculation formula of tumor volume is: V=0.5×a×b^2, wherein a and b represent the long diameter and short diameter of the tumor, respectively. The anti-tumor efficacy of the compounds was evaluated by TGI (%). TGI (%) reflects tumor growth inhibition rate.
Statistical analysis: the statistical analysis was based on the relative tumor volume and tumor weight at the end of the experiment using SPSS software. One-way ANOVA was used to analyze the comparison between multiple groups. […] P<0.05 was considered to indicate significant difference.
On the technique in general: Xenograft models place foreign cells or tissue in a host animal.

Series [2] is described as follows: In vivo pharmacokinetic test in mice. Further details: species or system male CD-1 mice. The settings on record: PO dose of 10 mL/kg. The procedure:
Experimental object: male CD-1 mice aged 7-9 weeks were used as the experimental animals, the LC/MS/MS method was used to determine the drug concentrations in plasma at different time points after single intravenous (IV) and intragastric (PO) administration of the compounds, in vivo pharmacokinetic behaviors of the compounds of the present disclosure in mice were studied, and pharmacokinetic characteristics thereof were evaluated. Drug preparation: The compounds were prepared into clear solutions with 5% DMSO+10% solutol+85% water as solvent for administration in IV (intravenous) group and PO (intragastric). The dose of the compounds: IV dose of 3 mg/kg, and PO dose of […].

Series [3] in a line: In vivo cassette pharmacokinetic test in mice. The arrangement: species or system male CD-1 mice. Particulars: male, CD-1, mouse, in vivo, po, 3 mg/kg, 2 h. On the procedure:
The dose of the compounds: […] PO dose of 3 mg/kg, and administration volume of 3 mL/kg.

The next series concerns the target T1, TrkA (Homo sapiens, UniProt P04629).
T1 construct: purchased Reaction Biology Corp. (contract assay)
The series is described as follows: Kinase inhibitory activity (33P-ATP filter binding, Reaction Biology Corp.). The series is classed as biochemical. Particulars: read-out: The half maximal inhibitory concentration IC50 on the kinases, TrkA. The procedure: (§1) The mixture was incubated at room temperature for 20 minutes. To the reaction mixture was added a certain concentration of ^33P-ATP to initiate the reaction, and then the mixture was incubated at room temperature for 120 minutes. The radioactivities of the reactants were determined by the method of filter binding. The final kinase activity was expressed as the ratio of the remaining kinase activity in the test sample to the kinase activity in the DMSO control group. The dose-effect curve was fitted by GraphPad software and the IC50 was calculated.

Another series addresses T2, TrkC (Homo sapiens, UniProt Q16288).
T2 construct: purchased Reaction Biology Corp. (contract assay)
The series is described as above. The series is classed as biochemical. The settings on record: read-out: The half maximal inhibitory concentration IC50 on the kinases, TrkC. The procedure: as §1

A further series has as its target T3, Ros1 (Homo sapiens, UniProt P08922).
T3 construct: purchased Reaction Biology Corp. (contract assay)
The series is described as above. The series is classed as biochemical. The settings on record: read-out: The half maximal inhibitory concentration IC50 on the kinases, Ros1. The procedure: as §1

The next series has as its target T4, ALK (Homo sapiens, UniProt Q9UM73).
T4 construct: purchased Reaction Biology Corp. (contract assay)
Described as above. The series is classed as biochemical. The settings on record: read-out: The half maximal inhibitory concentration IC50 on the kinases, ALK. On the procedure: The inhibitory activities of the compounds on TrkA, TrkC, ALK, Ros1 and other kinases were determined by Reaction Biology Corp. To reaction buffer (20 mM Hepes (pH 7.5), 10 mM MgCl2, 1 mM EGTA, 0.02% Brij35, 0.02 mg/mL BSA, 0.1 mM Na3VO4, 2 mM DTT, 1% DMSO) were sequentially added a certain concentration of substrate, coenzyme factor, kinase and test compound (10 concentrations, 3-fold serial dilutions, DMSO at a final concentration of […]), and the mixture was mixed evenly. The mixture was incubated at room temperature for 20 minutes. To the reaction mixture was added a certain concentration of ^33P-ATP to initiate the reaction, and then the mixture was incubated at room temperature for 120 minutes. The radioactivities of the reactants were determined by the method of filter binding. The final kinase activity was expressed as the ratio of the remaining kinase activity in the test sample to the kinase activity in the DMSO control group. The dose-effect curve was fitted by GraphPad software and the IC50 was calculated.

A further series concerns the target T5, TrkA-G595R (Homo sapiens, UniProt P04629, G595R).
T5 construct: purchased Reaction Biology Corp. (contract assay)
The series is described as above. The settings on record: read-out: The half maximal inhibitory concentration IC50 on the kinases, TrkA-G595R. The series is classed as biochemical. The procedure:
as §1

Series [4] addresses T6, Ba/F3 LMNA-NTRK1-WT stably transfected cell line (Homo sapiens, UniProt P04629).
T6 construct: fused on or other part: P02545 (Prelamin-A/C)
Briefly: Cell proliferation inhibition (CellTiter-Glo). Type of series: cell-based. The settings on record: 72 hours, read-out: The half maximal inhibitory concentration IC50 against cells, Ba/F3 LMNA-NTRK1-WT. On the procedure: Adenosine Tri-Phosphate (ATP) is an energy carrier shared by various life activities in nature, and is the smallest unit of energy storage and transfer. The CellTiter-Glo™ cell viability detection kit uses luciferase as the detection substance, and luciferase requires the participation of ATP during the process of luminescence. CellTiter-Glo™ reagent is added to cell culture medium, and the luminescent intensity is measured. The luminescent signal is directly proportional to the amount of ATP in the system, and ATP is positively related to the number of living cells. Therefore, by using the CellTiter-Glo kit to detect ATP content, cell proliferation can be detected. In this assay, the cell line is Ba/F3 LMNA-NTRK1-WT stably transfected cell line, with 5000 cells/well.
IC50 Determination Process:
1. Cell Culture and Inoculation
a) the cells in the logarithmic growth phase were harvested, and counted with a platelet counter. Trypan blue exclusion method was used to detect cell viability to ensure the cell viability was no less than 90%.
b) the cell concentration was adjusted; 90 μL of cell suspension was added respectively into a 96-well plate.
c) the cells in the 96-well plates was cultured under conditions of 37° C., 5% CO2 and 95% humidity overnight.
2. Drug Dilution and Administration
a) 10-fold drug solutions were prepared, the highest concentration was 10 μM, 9 concentrations, 3-fold diluted (refer to Appendix I). 10 μL of each drug solution was added to each well of the 96-well plate seeded with the cells in triplicate.
b) the cells in the 96-well plate added with the drug were cultured under conditions of 37° C., 5% CO2 and 95% humidity for 72 hours, and then CTG (cell proliferation) was performed.
a) CellTiter-Glo™ reagent was thawed, and the cell plate was equilibrated at room temperature for 30 minutes.
b) CellTiter-Glo™ reagent of a same volume was added to each well;
c) the cell plate was shaken on an orbital shaker for 5 minutes to lyse the cells.
d) the cell plate was placed at room temperature for 20 minutes to stabilize the luminescent signal.
e) the luminescent intensity was read.
GraphPad Prism 5.0 software was used to analyze the data, nonlinear S-curve regression was used to fit the data to obtain dose-effect curve, and IC50 value was calculated therefrom.

Molecules are shown by their SMILES. Counter-ions that a name gives are not always drawn.

T5 sequence (P04629 33-796 G595R): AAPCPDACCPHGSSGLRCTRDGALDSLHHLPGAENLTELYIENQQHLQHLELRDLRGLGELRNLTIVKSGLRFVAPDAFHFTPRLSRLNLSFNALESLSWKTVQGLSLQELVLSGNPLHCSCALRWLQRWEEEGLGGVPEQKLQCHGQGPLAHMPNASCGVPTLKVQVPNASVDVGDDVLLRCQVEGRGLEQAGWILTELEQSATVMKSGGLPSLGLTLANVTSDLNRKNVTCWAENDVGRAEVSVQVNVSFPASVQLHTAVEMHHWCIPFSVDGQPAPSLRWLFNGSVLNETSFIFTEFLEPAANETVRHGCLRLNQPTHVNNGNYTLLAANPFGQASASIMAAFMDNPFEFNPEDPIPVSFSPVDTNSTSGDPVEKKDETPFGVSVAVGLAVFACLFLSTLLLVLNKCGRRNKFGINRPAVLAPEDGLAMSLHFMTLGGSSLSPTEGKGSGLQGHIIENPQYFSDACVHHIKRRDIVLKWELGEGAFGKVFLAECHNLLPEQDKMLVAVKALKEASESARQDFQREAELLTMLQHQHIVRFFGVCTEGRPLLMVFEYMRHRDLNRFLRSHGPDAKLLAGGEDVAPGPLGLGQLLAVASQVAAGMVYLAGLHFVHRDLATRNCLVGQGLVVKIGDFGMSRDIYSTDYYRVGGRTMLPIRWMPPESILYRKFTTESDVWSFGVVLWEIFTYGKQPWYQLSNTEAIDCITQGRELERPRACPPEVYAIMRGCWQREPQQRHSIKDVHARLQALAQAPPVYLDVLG
T6 sequence (P04629 whole entry, change not shown, the tested form may be a part): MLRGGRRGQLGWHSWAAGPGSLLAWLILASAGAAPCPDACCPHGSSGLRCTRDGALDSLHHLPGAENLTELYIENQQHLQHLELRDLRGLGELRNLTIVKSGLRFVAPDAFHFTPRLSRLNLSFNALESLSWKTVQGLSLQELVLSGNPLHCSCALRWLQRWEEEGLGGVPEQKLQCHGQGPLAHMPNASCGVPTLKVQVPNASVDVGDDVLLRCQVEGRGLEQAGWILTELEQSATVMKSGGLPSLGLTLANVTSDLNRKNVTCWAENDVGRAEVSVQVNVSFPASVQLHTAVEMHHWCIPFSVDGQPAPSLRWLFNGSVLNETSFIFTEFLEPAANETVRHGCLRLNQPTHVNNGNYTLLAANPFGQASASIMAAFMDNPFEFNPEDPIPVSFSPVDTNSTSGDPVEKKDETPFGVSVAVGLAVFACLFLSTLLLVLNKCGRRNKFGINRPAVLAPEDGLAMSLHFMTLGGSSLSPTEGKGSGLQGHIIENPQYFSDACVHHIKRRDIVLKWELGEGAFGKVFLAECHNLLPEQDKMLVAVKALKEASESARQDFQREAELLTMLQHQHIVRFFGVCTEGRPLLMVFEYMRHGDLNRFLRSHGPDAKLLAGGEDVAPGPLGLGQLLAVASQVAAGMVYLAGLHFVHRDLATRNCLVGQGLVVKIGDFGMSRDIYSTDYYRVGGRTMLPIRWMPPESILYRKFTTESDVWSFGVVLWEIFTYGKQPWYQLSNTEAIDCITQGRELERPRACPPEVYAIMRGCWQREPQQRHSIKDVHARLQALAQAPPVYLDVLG
T1 sequence (P04629 33-796): as the sequence (P04629 33-796 G595R) above, with R563G counted along it
T2 sequence (Q16288 32-839): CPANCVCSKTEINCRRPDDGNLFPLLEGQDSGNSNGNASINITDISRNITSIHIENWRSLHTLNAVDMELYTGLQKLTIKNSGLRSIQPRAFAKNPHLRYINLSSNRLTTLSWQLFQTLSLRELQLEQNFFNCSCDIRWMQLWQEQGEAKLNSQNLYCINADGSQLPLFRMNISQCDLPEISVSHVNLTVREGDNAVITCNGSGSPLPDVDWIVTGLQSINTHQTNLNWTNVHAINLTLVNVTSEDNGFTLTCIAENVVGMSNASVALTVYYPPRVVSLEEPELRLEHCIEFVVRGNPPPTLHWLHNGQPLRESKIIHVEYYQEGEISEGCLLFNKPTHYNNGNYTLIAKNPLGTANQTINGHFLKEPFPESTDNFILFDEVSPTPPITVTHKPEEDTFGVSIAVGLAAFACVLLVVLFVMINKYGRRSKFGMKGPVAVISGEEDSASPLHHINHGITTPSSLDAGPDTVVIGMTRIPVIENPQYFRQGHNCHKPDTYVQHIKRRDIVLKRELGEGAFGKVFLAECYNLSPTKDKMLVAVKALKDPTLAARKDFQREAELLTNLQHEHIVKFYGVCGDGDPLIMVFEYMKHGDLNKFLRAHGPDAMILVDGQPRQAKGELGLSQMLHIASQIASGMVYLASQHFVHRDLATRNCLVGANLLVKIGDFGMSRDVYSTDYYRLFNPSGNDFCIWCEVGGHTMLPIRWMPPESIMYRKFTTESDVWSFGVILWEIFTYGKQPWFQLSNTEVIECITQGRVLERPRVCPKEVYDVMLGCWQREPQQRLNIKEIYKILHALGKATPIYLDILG
T3 sequence (P08922 28-2347): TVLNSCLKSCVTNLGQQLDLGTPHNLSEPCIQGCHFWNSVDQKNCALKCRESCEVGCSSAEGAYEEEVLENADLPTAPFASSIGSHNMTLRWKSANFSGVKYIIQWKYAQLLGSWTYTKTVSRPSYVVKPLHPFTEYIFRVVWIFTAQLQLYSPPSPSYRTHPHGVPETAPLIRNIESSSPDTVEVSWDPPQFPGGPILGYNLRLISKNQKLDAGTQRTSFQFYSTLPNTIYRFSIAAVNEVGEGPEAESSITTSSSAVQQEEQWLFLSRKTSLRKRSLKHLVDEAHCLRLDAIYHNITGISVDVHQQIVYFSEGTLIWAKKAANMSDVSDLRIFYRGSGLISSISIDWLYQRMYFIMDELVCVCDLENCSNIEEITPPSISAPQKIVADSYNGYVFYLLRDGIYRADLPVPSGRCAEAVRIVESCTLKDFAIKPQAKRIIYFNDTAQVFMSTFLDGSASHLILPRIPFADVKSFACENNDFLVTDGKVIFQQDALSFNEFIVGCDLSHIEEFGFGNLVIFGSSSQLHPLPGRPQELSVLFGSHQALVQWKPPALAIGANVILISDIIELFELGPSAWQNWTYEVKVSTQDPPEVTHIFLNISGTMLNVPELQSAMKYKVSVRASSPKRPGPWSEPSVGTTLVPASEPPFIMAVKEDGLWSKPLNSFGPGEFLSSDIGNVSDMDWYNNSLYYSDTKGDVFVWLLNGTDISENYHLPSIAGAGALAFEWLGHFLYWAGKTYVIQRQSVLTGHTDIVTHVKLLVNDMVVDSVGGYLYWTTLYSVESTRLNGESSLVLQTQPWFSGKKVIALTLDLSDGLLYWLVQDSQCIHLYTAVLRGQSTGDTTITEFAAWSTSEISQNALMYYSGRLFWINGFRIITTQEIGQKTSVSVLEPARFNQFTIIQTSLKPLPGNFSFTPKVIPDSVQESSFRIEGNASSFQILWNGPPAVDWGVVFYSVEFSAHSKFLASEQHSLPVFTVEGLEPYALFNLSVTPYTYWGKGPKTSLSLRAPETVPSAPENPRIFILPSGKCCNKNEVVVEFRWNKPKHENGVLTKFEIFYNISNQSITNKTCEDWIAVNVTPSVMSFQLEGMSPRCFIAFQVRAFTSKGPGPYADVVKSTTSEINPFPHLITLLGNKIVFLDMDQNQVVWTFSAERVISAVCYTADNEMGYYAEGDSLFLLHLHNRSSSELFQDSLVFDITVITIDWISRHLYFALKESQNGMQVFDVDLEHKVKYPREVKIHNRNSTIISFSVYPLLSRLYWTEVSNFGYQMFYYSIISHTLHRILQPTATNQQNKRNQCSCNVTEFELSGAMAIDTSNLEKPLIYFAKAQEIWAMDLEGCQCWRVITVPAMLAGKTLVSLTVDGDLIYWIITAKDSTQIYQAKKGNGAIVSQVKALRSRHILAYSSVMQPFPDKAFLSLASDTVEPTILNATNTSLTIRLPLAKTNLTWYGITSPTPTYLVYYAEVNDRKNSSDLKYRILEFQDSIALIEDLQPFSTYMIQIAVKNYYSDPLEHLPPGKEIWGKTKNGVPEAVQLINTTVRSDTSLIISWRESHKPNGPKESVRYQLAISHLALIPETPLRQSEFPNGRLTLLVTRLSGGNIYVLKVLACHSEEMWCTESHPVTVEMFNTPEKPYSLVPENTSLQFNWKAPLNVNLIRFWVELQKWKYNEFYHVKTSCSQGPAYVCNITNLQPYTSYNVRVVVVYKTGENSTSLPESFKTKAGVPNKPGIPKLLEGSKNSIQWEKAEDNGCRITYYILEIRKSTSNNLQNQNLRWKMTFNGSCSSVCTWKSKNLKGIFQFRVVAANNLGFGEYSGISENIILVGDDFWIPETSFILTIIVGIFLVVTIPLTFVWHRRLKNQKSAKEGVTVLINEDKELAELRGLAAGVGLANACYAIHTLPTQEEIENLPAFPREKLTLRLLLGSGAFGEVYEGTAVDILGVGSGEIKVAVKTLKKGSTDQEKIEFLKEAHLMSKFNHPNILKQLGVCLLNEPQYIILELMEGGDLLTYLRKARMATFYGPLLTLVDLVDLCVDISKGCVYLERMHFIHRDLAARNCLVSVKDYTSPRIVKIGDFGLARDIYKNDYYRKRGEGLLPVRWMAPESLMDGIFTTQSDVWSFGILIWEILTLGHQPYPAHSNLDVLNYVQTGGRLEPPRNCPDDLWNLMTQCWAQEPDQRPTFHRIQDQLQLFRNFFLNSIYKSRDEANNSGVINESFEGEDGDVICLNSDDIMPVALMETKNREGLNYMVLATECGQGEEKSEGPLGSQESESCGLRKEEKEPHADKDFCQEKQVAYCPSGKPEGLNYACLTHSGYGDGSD

Regarding `C[C@@H](Oc1cc(-c2cnn(C3CCNCC3)c2)cnc1N)c1c(Cl)ccc(F)c1Cl` [Crizotinib, crizotinib, reference compound], in series [1] (30 mg/kg QD), the T/C came out at 10.32% and the TGI was 117.67%. Further, in series [1] (50 mg/kg QD), the T/C came out at 4.89% and the TGI was determined as 124.09%. Regarding `C[C@@H]1CCc2ncc(F)cc2[C@H]2CCCN2c2ccn3ncc(c3n2)C(=O)N1` [LOXO-195, reference compound], in [2], the “Area under the curve AUC0-last” value amounted to 27.344 µM·h and the “Time of peak concentration Tmax” value worked out at 22.8 min. In addition, in series [2] (read-out: Peak concentration Cmax), the Cmax is 12.7 µM. Turning to `CN1CCN(c2ccc(C(=O)Nc3n[nH]c4ccc(Cc5cc(F)cc(F)c5)cc34)c(NC3CCOCC3)c2)CC1` [RXDX-101, Entrectinib, reference compound], in series [3], the “drug concentration in brain at 2 h Brain@2 h” value is reported as 30 nmol/kg. Consider `CC1CCc2ncc(F)cc2C2CCON2c2ccn3ncc(c3n2)C(=O)N1` (stereo not drawn) [WX001 hydrochloride], for which, at TrkA, the IC50 was 177 nM. With `O=C1NC2(CC2)COc2ncc(F)cc2[C@@H]2CCON2c2ccn3ncc1c3n2` [WX002B], the IC50 at TrkA was above 1000 nM. Regarding `O=C1NC2(CC2)COc2ncc(F)cc2C2CCON2c2ccn3ncc1c3n2` (stereo not drawn) [WX002], on TrkA, the IC50 is 4.37 nM. Take `O=C1NC2(CC2)COc2ccc(F)cc2[C@@H]2CCON2c2ccn3ncc1c3n2` [WX003B]: the IC50 at TrkA was above 1000 nM. As for `C[C@@H]1COc2ncc(F)cc2[C@@H]2CCON2c2ccn3ncc(c3n2)C(=O)N1` [WX004B], the values for the IC50 on TrkA and at TrkC were above 1000 nM and 105 nM, respectively. In the case of `C[C@H]1CNC(=O)c2cnn3ccc(nc23)N2OCC[C@H]2c2cc(F)cnc2O1` [WX005A], the IC50 is above 1000 nM at TrkA, 531 nM on Ros1, 189 nM on TrkC and above 1000 nM on ALK. Take `O=C1NC2(COC2)COc2ncc(F)cc2[C@@H]2CCON2c2ccn3ncc1c3n2` [WX006B]: the IC50 at TrkA and on TrkA-G595R was above 1000 nM each time. Take `O=C1N[C@@H]2CCC[C@@H]2Oc2ncc(F)cc2[C@@H]2CCON2c2ccn3ncc1c3n2` [WX007B]: the IC50 on TrkA is 585 nM; on TrkA-G595R it was above 1000 nM. Regarding `O=C1N[C@@H]2COC[C@@H]2Oc2ncc(F)cc2[C@@H]2CCON2c2ccn3ncc1c3n2` [WX008B], the IC50 at TrkA and at TrkA-G595R was above 1000 nM each time. For the compound `CN1C[C@@H]2Oc3ncc(F)cc3[C@H]3CCON3c3ccn4ncc(c4n3)C(=O)N[C@@H]2C1` [WX009A], the GI50 in series [4] came out at 76.8 nM. In addition, the IC50 at TrkA is 85.1 nM. For the compound `CN1C[C@@H]2Oc3ncc(F)cc3[C@@H]3CCON3c3ccn4ncc(c4n3)C(=O)N[C@@H]2C1` [WX009B], the IC50 at TrkA is above 1000 nM. Take `O=C1N[C@@H]2COCC[C@@H]2Oc2ncc(F)cc2[C@@H]2CCON2c2ccn3ncc1c3n2` [WX010A]: the IC50 on TrkA was above 1000 nM. Regarding `CN1CC[C@H]2NC(=O)c3cnn4ccc(nc34)N3OCC[C@@H]3c3cc(F)cnc3O[C@H]2C1` [WX011A], the GI50 in [4] worked out at 39.7 nM. The IC50 at TrkA was determined as 33.6 nM. For `CN1CC[C@H]2NC(=O)c3cnn4ccc(nc34)N3OCC[C@H]3c3cc(F)cnc3O[C@H]2C1` [WX011B], at TrkA, the IC50 was 270 nM. Consider `O=C1N[C@@H]2CNC[C@@H]2Oc2ncc(F)cc2[C@@H]2CCON2c2ccn3ncc1c3n2` [WX012A], for which, at TrkA, the IC50 was above 1000 nM. As for `O=C1N[C@@H]2CNC[C@@H]2Oc2ncc(F)cc2[C@H]2CCON2c2ccn3ncc1c3n2` [WX012B], the GI50 in series [4] worked out at 259 nM. In addition, at TrkA, the IC50 was found to be 143 nM. For `O=C1N[C@@H]2CCNC[C@@H]2Oc2ncc(F)cc2[C@@H]2CCON2c2ccn3ncc1c3n2` [WX013A], the IC50 at TrkA is above 1000 nM.

On to `O=C1N[C@@H]2CCNC[C@@H]2Oc2ncc(F)cc2[C@H]2CCON2c2ccn3ncc1c3n2` [WX013B], for which the GI50 in [4] was determined as 216 nM. Further, the IC50 on TrkA came out at 57.2 nM. With `CC(=O)N1CC[C@H]2NC(=O)c3cnn4ccc(nc34)N3OCC[C@H]3c3cc(F)cnc3O[C@H]2C1` [WX014A], on TrkA, the IC50 was 1230 nM. With `CC(=O)N1CC[C@H]2NC(=O)c3cnn4ccc(nc34)N3OCC[C@@H]3c3cc(F)cnc3O[C@H]2C1` [WX014B], the GI50 in series [4] was 80.4 nM. Moreover, on TrkA, the IC50 worked out at 12.8 nM.

As to `CCN1C[C@@H]2Oc3ncc(F)cc3[C@H]3CCON3c3ccn4ncc(c4n3)C(=O)N[C@@H]2C1` [WX015A], in [4], the GI50 is 65.1 nM. Besides, the IC50 at TrkA was determined as 182 nM. Turning to `CCN1C[C@@H]2Oc3ncc(F)cc3[C@@H]3CCON3c3ccn4ncc(c4n3)C(=O)N[C@@H]2C1` [WX015B], the IC50 on TrkA is above 1000 nM. For `CCN1CC[C@H]2NC(=O)c3cnn4ccc(nc34)N3OCC[C@@H]3c3cc(F)cnc3O[C@H]2C1` [WX016A], the GI50 in [4] came out at 65.8 nM. In addition, the IC50 at TrkA is 33 nM. As to `CCN1CC[C@H]2NC(=O)c3cnn4ccc(nc34)N3OCC[C@H]3c3cc(F)cnc3O[C@H]2C1` [WX016B], the IC50 at TrkA is 220 nM. Regarding `C[C@@H]1COc2ccc(F)cc2[C@@H]2CCON2c2ccn3ncc(c3n2)C(=O)N1` [WX017B], the IC50 at TrkA is above 1000 nM. Turning to `CC1(C)COc2ncc(F)cc2[C@H]2CCON2c2ccn3ncc(c3n2)C(=O)N1` [WX018], at TrkA, the IC50 is above 1000 nM.
